Assays:
[1] = target: GST-CBP(1081-1197) bromodomain (Homo sapiens (Human), UniProt Q92793); experiment: CBP AlphaScreen Assay; details: binding to biotin-H4(1-21) Ac-K5/8/12/16
Description: (§1) Specific binding of the CBP or BRD4 bromodomain to the acetylated peptide derived from the H4 histone substrate (tetra acetylated H4(1-21) Ac-K5/8/12/16) was measured in absence or presence of inhibitors. The GST tagged bromodomains of CBP (1081-1197) and BRD4 (49-170) were obtained from BPS Bioscience and binding to the biotinylated H4(1-21) Ac-K5/8/12/16 (AnaSpec. 64989) was assessed via AlphaScreen technology (Perkin Elmer).
(§2) 5 nM GST-CBP(1081-1197) and 20 nM biotin-H4(1-21) Ac-K5/8/12/16 (AnaSpec. 64989) were incubated with varying concentrations of CBP inhibitors in 15 μL of buffer containing 50 mM HEPES 7.5, […], 1 mM TCEP, and 0.003% Tween-20. After 30 minutes incubation at room temperature, 15 μL of detection buffer (BPS Bio. 33006) containing 7 μg/mL of Glutathione AlphaLisa acceptor beads (Perkin Elmer AL109) and 14 μg/mL of Streptavidin donor beads (Perkin Elmer 676002) was then added to the previous mixture. The reaction was incubated for an additional 2 hours at room temperature, and the AlphaScreen signal was quantified using the Envision Multilabel plate reader. As negative control, GST-CBP(1081-1197) was incubated with the non-acetylated biotin-H4(1-21) peptide(AnaSpec. 62555) and in presence of 0.25% of final DMSO concentration.
(§3) the binding of 2.5 nM of BRD4(49-170) to 10 nM biotin-H4(1-21) Ac-K5/8/12/16 (AnaSpec. 64989) was assessed following the same procedure described for the CBP assay. The standard dose response curves were fitted by Genedata Screener software using the variable-slope model: Signal=Signalnegative control+(SignalDMSO control−Signalnegative control)/(1+(IC50/Dose)^Hill slope).
(§4) Only Signal and Dose in the equation were treated as know values.

BRD4(49-170) bromodomain = BRD4(49-170) bromodomain (Homo sapiens (Human), UniProt O60885); experiment: BRD4 AlphaScreen Assay; details: binding to biotin-H4(1-21) Ac-K5/8/12/16
Description: as §1, §2, §3, §4

GST-CBP(1081-1197) bromodomain, sequence (Q92793 1081-1197): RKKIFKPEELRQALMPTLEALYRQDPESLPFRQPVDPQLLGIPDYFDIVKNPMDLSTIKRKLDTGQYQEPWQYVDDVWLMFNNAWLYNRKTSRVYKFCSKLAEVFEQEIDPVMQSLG

SMILES | IC50 [1] [nM] | IC50 (BRD4(49-170) bromodomain) [nM]
CC1C(=O)N(C)Cc2c(-c3cccc4nc(-c5cnn(C)c5)c(C(F)F)cc34)nc(C3CN(CC(F)F)C3)n21 (centres unmarked) [Example 22, 3-(1-(2,2-Difluoroethyl)azetidin-3-yl)-1-(3-(difluoromethyl)-2-(1-methyl-1H-pyrazol-4-yl)quinolin-5-yl)-5,7-dimethyl-7,8-dihydroimidazo[1,5-a]pyrazin-6(5H)-one] | 11 | 4340
Cc1cnn(-c2cc3cccc(-c4nc(C5CC5)n5c4CN(C)C(=O)C5C)c3cn2)c1 (centres unmarked) [Example 14, 3-Cyclopropyl-5,7-dimethyl-1-(3-(4-methyl-1H-pyrazol-1-yl)isoquinolin-8-yl)-7,8-dihydroimidazo[1,5-a]pyrazin-6(5H)-one] | 3 | 440
CC1C(=O)N(C)Cc2c(-c3cccc4nc(-c5ncco5)c(C(F)F)cc34)nc(C3CC3)n21 (centres unmarked) [Example 74, 3-cyclopropyl-1-(3-(difluoromethyl)-2-(oxazol-2-yl)quinolin-5-yl)-5,7-dimethyl-7,8-dihydroimidazo[1,5-a] pyrazin-6(5H)-one] | 4 | 179
CCN1Cc2c(N3CCCc4cc(-c5cnn(C)c5)c(C(F)F)cc43)nc(C3CC3)n2CC1=O [Example 4, 3-Cyclopropyl-1-(7-(difluoromethyl)-6-(1-methyl-1H-pyrazol-4-yl)-3,4-dihydroquinolin-1(2H)-yl)-7-ethyl-7,8-dihydroimidazo[1,5-a]pyrazin-6(5H)-one] | 6 | 17600
Cc1cn(-c2cc3cccc(-c4nc(C5CC5)n5c4CN(C)C(=O)C5C)c3cn2)nc1C (centres unmarked) [Example 72, 3-cyclopropyl-1-(3-(3,4-dimethyl-1H-pyrazol-1-yl)isoquinolin-8-yl)-5,7-dimethyl-7,8-dihydroimidazo[1,5-a] pyrazin-6(5H)-one] | 2 | 297
Cc1cn(-c2cc3cccc(-c4nc(C5CCOCC5)n5c4CN(C)C(=O)C5C)c3cn2)cn1 (single isomer, unassigned) [Example 30b, 5,7-dimethyl-1-(3-(4-methyl-1H-imidazol-1-yl)isoquinolin-8-yl)-3-(tetrahydro-2H-pyran-4-yl)-7,8-dihydroimidazo[1,5-a]pyrazin-6(5H)-one] | 373 | 18600
CC1C(=O)N(C)Cc2c(-c3cccc4nc(-c5cnn(C)c5)c(C(F)F)cc34)nc(C3CN(CCF)C3)n21 (centres unmarked) [Example 25, 1-(3-(Difluoromethyl)-2-(1-methyl-1H-pyrazol-4-yl)quinolin-5-yl)-3-(1-(2-fluoroethyl)azetidin-3-yl)-5,7-dimethyl-7,8-dihydroimidazo[1,5-a]pyrazin-6(5H)-one] | 26 | 11600
CC1C(=O)N(C)Cc2c(-c3c(F)ccc4nc(-c5cnn(C)c5)c(C(F)(F)F)cc34)nc(C3CCOCC3)n21 (centres unmarked) [Example 35, 1-(6-Fluoro-2-(1-methyl-1H-pyrazol-4-yl)-3-(trifluoromethyl)quinolin-5-yl)-5,7-dimethyl-3-(tetrahydro-2H-pyran-4-yl)-7,8-dihydroimidazo[1,5-a]pyrazin-6(5H)-one] | 1200 | 25000
Cc1ccn(-c2cc3cccc(-c4nc(C5CC5)n5c4CN(C)C(=O)C5C)c3cn2)n1 (centres unmarked) [Example 73, 3-cyclopropyl-5,7-dimethyl-1-(3-(3-methyl-1H-pyrazol-1-yl)isoquinolin-8-yl)-7,8-dihydroimidazo[1,5-a] pyrazin-6(5H)-one] | 3 | 408
CC1C(=O)N(C)Cc2c(-c3cccc4cc(-c5cn(C)cn5)ncc34)nc(C3CC3)n21 (centres unmarked) [Example 76, 3-cyclopropyl-5,7-dimethyl-1-(3-(1-methyl-1H-imidazol-4-yl)isoquinolin-8-yl)-7,8-dihydroimidazo[1,5-a] pyrazin-6(5H)-one] | 2 | 384
CC1C(=O)N(C)Cc2c(-c3cccc4cc(-c5nsc(=O)[nH]5)ncc34)nc(C3CC3)n21 (centres unmarked) [Example 47, 3-(8-(3-Cyclopropyl-5,7-dimethyl-6-oxo-5,6,7,8-tetrahydroimidazo[1,5-a]pyrazin-1-yl)isoquinolin-3-yl)-1,2,4-thiadiazol-5(4H)-one] | 2 | 1460
CC1C(=O)N(C)Cc2c(-c3cccc4cc(-c5ncco5)ncc34)nc(C3CC3)n21 (centres unmarked) [Example 66, 3-cyclopropyl-5,7-dimethyl-1-(3-(oxazol-2-yl)isoquinolin-8-yl)-7,8-dihydroimidazo[1,5-a] pyrazin-6(5H)-one] | 11 | 1590
CC1C(=O)N(C)Cc2c(-c3cc4c(-c5cnn(C)c5)nn(C)c4cc3F)nc(C3=CCOCC3)n21 (centres unmarked) [Example 42, 3-(3,6-Dihydro-2H-pyran-4-yl)-1-(6-fluoro-1-methyl-3-(1-methyl-1H-pyrazol-4-yl)-1H-indazol-5-yl)-5,7-dimethyl-7,8-dihydroimidazo[1,5-a]pyrazin-6(5H)-one] | 28 | 3330
Cc1cn(-c2cc3cccc(-c4nc(C5CCOCC5)n5c4CN(C)C(=O)C5C)c3cn2)cn1 (single isomer, unassigned) [Example 30a, 5,7-dimethyl-1-(3-(4-methyl-1H-imidazol-1-yl)isoquinolin-8-yl)-3-(tetrahydro-2H-pyran-4-yl)-7,8-dihydroimidazo[1,5-a]pyrazin-6(5H)-one] | 1 | 96

Results, then the compound that gave them:

IC50 [1] [nM] | IC50 (BRD4(49-170) bromodomain) [nM] | SMILES
1 | 215 | Cc1ncc(-c2cc3ccc(F)c(-c4nc(C5CCOCC5)n5c4CN(C)C(=O)C5C)c3cn2)s1 (single isomer, unassigned) [Example 37a, 1-(7-Fluoro-3-(2-methylthiazol-5-yl)isoquinolin-8-yl)-5,7-dimethyl-3-(tetrahydro-2H-pyran-4-yl)-7,8-dihydroimidazo[1,5-a]pyrazin-6(5H)-one]
144 | ≥ 25000 | CC1C(=O)N(C)Cc2c(-c3c(F)ccc4nc(-c5cnn(C)c5)c(C(F)F)cc34)nc(C3CCOCC3)n21 (single isomer, unassigned) [Example 36b, 1-(3-(Difluoromethyl)-6-fluoro-2-(1-methyl-1H-pyrazol-4-yl)quinolin-5-yl)-5,7-dimethyl-3-(tetrahydro-2H-pyran-4-yl)-7,8-dihydroimidazo[1,5-a]pyrazin-6(5H)-one]
3610 | 25000 | Cc1nn(C)cc1-c1cc2ccc(F)c(-c3nc(C4CCOCC4)n4c3CN(C)C(=O)C4C)c2cn1 (single isomer, unassigned) [Example 91a, 1-(3-(1,3-dimethyl-1H-pyrazol-4-yl)-7-fluoroisoquinolin-8-yl)-5,7-dimethyl-3-(tetrahydro-2H-pyran-4-yl)-7,8-dihydroimidazo[1,5-a] pyrazin-6(5H)-one]
453 | 9250 | C[C@H]1C(=O)N(C)Cc2c(-c3cccc4nc(-c5cnn(C)c5)c(C(F)F)cc34)nc(C3CC3)n21 [Example 110a, (S)-3-cyclopropyl-1-(3 (difluoromethyl)-2-(1-methyl-1H-pyrazol-4-yl)quinolin-5-yl)-5,7-dimethyl-7,8-dihydroimidazo[1,5-a] pyrazin-6(5H)-one]
2 | 624 | CC1C(=O)N(C)Cc2c(-c3c(F)ccc4nc(-c5cnn(C)c5)c(C(F)F)cc34)nc(C3CCOCC3)n21 (single isomer, unassigned) [Example 36a, 1-(3-(Difluoromethyl)-6-fluoro-2-(1-methyl-1H-pyrazol-4-yl)quinolin-5-yl)-5,7-dimethyl-3-(tetrahydro-2H-pyran-4-yl)-7,8-dihydroimidazo[1,5-a]pyrazin-6(5H)-one]
